# From patent US9328122B2, “7-substituted Hanfangichin B derivative, and preparation method and use thereof” (HANGZHOU BENSHENG PHARMACEUTICAL CO., LTD., priority 2012, dated 2016)
# Columns and labels:
# [1] = system: U87-MG (malignant glioma) cells; experiment: MTT cell growth inhibition, solid tumor cells; format: cell-based; conditions: Homo sapiens, U-87 MG, U87-MG, 72 h, MTT; for IC50: read-out: IC50; for IC90: read-out: IC90
# How it was run: (§1)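 MTT viability readout; 72 h drug exposure; 6000 cells/well; 24 h preincubation; DMEM-HG/10% FBS; 37 °C, 5% CO2.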
# [2] = system: A549 (human lung cancer) cells; experiment: MTT cell growth inhibition, solid tumor cells; format: cell-based; conditions: for IC50 / IC90: Homo sapiens, A549, 72 h, MTT; for IC50: read-out: IC50; for IC90: read-out: IC90
# How it was run: as §1
# [3] = system: Hep-2 (laryngeal carcinoma) cells; experiment: MTT cell growth inhibition, solid tumor cells; format: cell-based; conditions: Homo sapiens, Hep-2, 72 h, MTT; for IC50: read-out: IC50; for IC90: read-out: IC90
# How it was run: as §1
# [4] = system: Hep G2 transplanted tumor; experiment: Transplanted tumor of liver cancer in nude mice
# Method: Liver cancer cell lines: Hep G2 (human liver cancer cell line);
# Animal: BALBc nude mice (immunodeficient mice), 8 weeks, female, purchased from Shanghai Laboratory Animal Center of Chinese Academy of Sciences, China.
# Under sterile conditions, the Hep G2 cells in the logarithmic growth phase were respectively collected and injected subcutaneously in an amount of 2.3×10^7/0.2 mL/nude mice (cell viability >90%) into the left subaxillary of the nude mice, thus establishing a transplanted tumor model of liver cancer in nude mice. The mice were administered from the second day after inoculation. The experimental group was intragastrically administered with the experimentally designed amount, the negative control group was intragastrically administered with sterile water, and the positive control group was intragastrically administered with erlotinib hydrochloride. Each mouse was intragastrically administered in 0.4 ml each time and 3 times a day, at 8:00, 14:00 and 20:00, with 6-hour intervals. The administrations were successive for 10 days. The day before administration was deemed as Day 0 and the weight and tumor size of the mice were determined every 5 days to produce a dynamic plot on weight and tumor growth (the experimental results are presented as mean±SD). On Day 28, the mice were sacrificed and the tumors were taken out and weighed. The tumor inhibition rate (%) after the effect of the medicament was calculated based on a tumor inhibition rate of the control group being zero.
# The experimental data for each group were analyzed by using the One-way ANOVA method in the SPSS 19.0 statistical software and were compared with the control group for significance of difference.
# [5] = system: KCL-22M transplanted tumor; experiment: Transplanted tumor of leukemia in nude mice; format: in vivo, BALBc nude mice
# Method: Leukemia cell lines: KCL-22M (human chronic myeloid leukemia mutant strain);
# The mice were administered from the second day after the inoculation. […] The administrations were successive for 10 days. […] On Day 25, the mice were sacrificed and the tumors are taken out and weighed.
IC50 [1],IC90 [1],IC50 [2],IC90 [2],IC50 [3],IC90 [3],SMILES,"Mass of tumor ([4]; Hep G2 transplanted tumor, Day 28, intragastric 3 times a day for 10 days, BS-FC-308 35 mg/kg/time, erlotinib hydrochloride 20 mg/kg/time)","Tumor Inhibition rate ([4]; Hep G2 transplanted tumor, Day 28, intragastric 3 times a day for 10 days, BS-FC-308 35 mg/kg/time, erlotinib hydrochloride 20 mg/kg/time, control = 0)","Body Weight (g) Initial ([4]; Hep G2 tumor nude mice, before administration, intragastric 3 times a day, BS-FC-308 35 mg/kg/time, erlotinib hydrochloride 20 mg/kg/time, mean±SD)","Body Weight (g) Final ([4]; Hep G2 tumor nude mice, final, intragastric 3 times a day for 10 days, BS-FC-308 35 mg/kg/time, erlotinib hydrochloride 20 mg/kg/time, mean±SD)",weight of the Hep G2 transplanted tumors (FIG. 3) ([4]; nude mice),"animal's weight during the administration (toxic and side effects) ([5]; 30 mg/kg/time, three administrations per day, weight rebounded after administration was stopped)","Mass of tumor ([5]; KCL-22M transplanted tumor, Day 25, 30 mg/kg/time intragastric 3 times a day for 10 days)","Tumor Inhibition rate ([5]; KCL-22M transplanted tumor, Day 25, 30 mg/kg/time intragastric 3 times a day for 10 days, control = 0)","Body Weight (g) Initial ([5]; KCL-22M tumor nude mice, before administration, 30 mg/kg/time intragastric 3 times a day, mean±SD)","Body Weight (g) Final ([5]; KCL-22M tumor nude mice, final, 30 mg/kg/time intragastric 3 times a day for 10 days, mean±SD)","anti-A549 activity increase over fangchinoline ([2]; relative to fangchinoline, Table 2)"
1.79 µg/mL,5.39 µg/mL,2.41 µg/mL,6.55 µg/mL,3.99 µg/mL,11.1 µg/mL,COc1ccc2cc1Oc1ccc(cc1)C[C@H]1c3cc(c(OC)cc3CCN1C)Oc1c(OS(=O)(=O)c3ccc(C)cc3)c(OC)cc3c1[C@H](C2)N(C)CC3 [BS-FC-102],–,–,–,–,–,–,–,–,–,–,–
1.63 µg/mL,4.5 µg/mL,1.57 µg/mL,3.94 µg/mL,3.18 µg/mL,10.2 µg/mL,COc1ccc2cc1Oc1ccc(cc1)C[C@H]1c3cc(c(OC)cc3CCN1C)Oc1c(OS(=O)(=O)c3ccccc3)c(OC)cc3c1[C@H](C2)N(C)CC3 [BS-FC-104],–,–,–,–,–,–,–,–,–,–,–
2.38 µg/mL,9.1 µg/mL,2.16 µg/mL,3.94 µg/mL,3.18 µg/mL,8.31 µg/mL,COc1ccc2cc1Oc1ccc(cc1)C[C@H]1c3cc(c(OC)cc3CCN1C)Oc1c(OCc3cccc(F)c3F)c(OC)cc3c1[C@H](C2)N(C)CC3 [BS-FC-204],–,–,–,–,–,–,–,–,–,–,–
1.99 µg/mL,7.48 µg/mL,2.51 µg/mL,13.1 µg/mL,3.27 µg/mL,8.05 µg/mL,COc1ccc2cc1Oc1ccc(cc1)C[C@H]1c3cc(c(OC)cc3CCN1C)Oc1c(OCC3CC3)c(OC)cc3c1[C@H](C2)N(C)CC3 [BS-FC-208],–,–,–,–,–,–,–,–,–,–,–
1.85 µg/mL,9.23 µg/mL,2.19 µg/mL,4.92 µg/mL,3.63 µg/mL,9.9 µg/mL,C=CCOc1c(OC)cc2c3c1Oc1cc4c(cc1OC)CCN(C)[C@H]4Cc1ccc(cc1)Oc1cc(ccc1OC)C[C@@H]3N(C)CC2 [BS-FC-213],–,–,–,–,–,–,–,–,–,–,–
2.11 µg/mL,7.74 µg/mL,2.7 µg/mL,5.9 µg/mL,3.69 µg/mL,7.88 µg/mL,COc1ccc2cc1Oc1ccc(cc1)C[C@H]1c3cc(c(OC)cc3CCN1C)Oc1c(OCc3ccc(C(F)(F)F)cc3)c(OC)cc3c1[C@H](C2)N(C)CC3 [BS-FC-216],–,–,–,–,–,–,–,–,–,–,–
2.28 µg/mL,7.03 µg/mL,2.55 µg/mL,4.97 µg/mL,4.2 µg/mL,10.3 µg/mL,COc1ccc2cc1Oc1ccc(cc1)C[C@H]1c3cc(c(OC)cc3CCN1C)Oc1c(OC3CCCC3)c(OC)cc3c1[C@H](C2)N(C)CC3 [BS-FC-220],–,–,–,–,–,–,–,–,–,–,–
1.13 µg/mL,4.5 µg/mL,1.2 µg/mL,3.18 µg/mL,1.9 µg/mL,5.78 µg/mL,C=C(C)COc1c(OC)cc2c3c1Oc1cc4c(cc1OC)CCN(C)[C@H]4Cc1ccc(cc1)Oc1cc(ccc1OC)C[C@@H]3N(C)CC2 [BS-FC-221],–,–,–,–,–,–,–,–,–,–,–
1.68 µg/mL,4.97 µg/mL,2.24 µg/mL,5.59 µg/mL,4.95 µg/mL,12.2 µg/mL,COc1ccc2cc1Oc1ccc(cc1)C[C@H]1c3cc(c(OC)cc3CCN1C)Oc1c(OC(=O)C3CC3)c(OC)cc3c1[C@H](C2)N(C)CC3 [BS-FC-304],–,–,–,–,–,–,–,–,–,–,–
1.25 µg/mL,3.8 µg/mL,1.36 µg/mL,4.38 µg/mL,1.64 µg/mL,4.85 µg/mL,COc1cc(OC)cc(C(=O)Oc2c(OC)cc3c4c2Oc2cc5c(cc2OC)CCN(C)[C@H]5Cc2ccc(cc2)Oc2cc(ccc2OC)C[C@@H]4N(C)CC3)c1 [BS-FC-311],–,–,–,–,–,–,–,–,–,–,–
1.34 µg/mL,3.24 µg/mL,1.85 µg/mL,3.48 µg/mL,3.66 µg/mL,6.4 µg/mL,COc1ccc2cc1Oc1ccc(cc1)C[C@H]1c3cc(c(OC)cc3CCN1C)Oc1c(OC(=O)c3c(F)cccc3Cl)c(OC)cc3c1[C@H](C2)N(C)CC3 [BS-FC-315],–,–,–,–,–,–,–,–,–,–,–
0.71 µg/mL,1.73 µg/mL,1.84 µg/mL,6.34 µg/mL,1.76 µg/mL,5.66 µg/mL,COc1ccc2cc1Oc1ccc(cc1)C[C@H]1c3cc(c(OC)cc3CCN1C)Oc1c(OCC(O)CN3CCCCC3)c(OC)cc3c1[C@H](C2)N(C)CC3 (some centres unmarked) [BS-FC-403],–,–,–,–,–,–,–,–,–,–,–
0.7 µg/mL,1.41 µg/mL,1.94 µg/mL,5.89 µg/mL,1.67 µg/mL,4.81 µg/mL,COc1ccc2cc1Oc1ccc(cc1)C[C@H]1c3cc(c(OC)cc3CCN1C)Oc1c(OCC(O)CNCC3CC3)c(OC)cc3c1[C@H](C2)N(C)CC3 (some centres unmarked) [BS-FC-405],–,–,–,–,–,–,–,–,–,–,–
1.07 µg/mL,2.68 µg/mL,2.98 µg/mL,8.43 µg/mL,1.79 µg/mL,5.54 µg/mL,C=CCN(C)CC(O)COc1c(OC)cc2c3c1Oc1cc4c(cc1OC)CCN(C)[C@H]4Cc1ccc(cc1)Oc1cc(ccc1OC)C[C@@H]3N(C)CC2 (some centres unmarked) [BS-FC-409],–,–,–,–,–,–,–,–,–,–,–
0.67 µg/mL,1.19 µg/mL,1.71 µg/mL,6.8 µg/mL,2.25 µg/mL,8 µg/mL,COc1ccc2cc1Oc1ccc(cc1)C[C@H]1c3cc(c(OC)cc3CCN1C)Oc1c(OCC(O)CN3CCCC(C)C3)c(OC)cc3c1[C@H](C2)N(C)CC3 (some centres unmarked) [BS-FC-410],–,–,–,–,–,–,–,–,–,–,–
1.49 µg/mL,4.25 µg/mL,3.77 µg/mL,11.7 µg/mL,2.36 µg/mL,6.03 µg/mL,COc1ccc2cc1Oc1ccc(cc1)C[C@H]1c3cc(c(OC)cc3CCN1C)Oc1c(OCC(O)CN3CCSCC3)c(OC)cc3c1[C@H](C2)N(C)CC3 (some centres unmarked) [BS-FC-417],–,–,–,–,–,–,–,–,–,–,–
1.05 µg/mL,2.75 µg/mL,3.78 µg/mL,10.2 µg/mL,1.92 µg/mL,8.95 µg/mL,COc1ccc2cc1Oc1ccc(cc1)C[C@H]1c3cc(c(OC)cc3CCN1C)Oc1c(OCC(O)CN3CCN(C#N)CC3)c(OC)cc3c1[C@H](C2)N(C)CC3 (some centres unmarked) [BS-FC-421],–,–,–,–,–,–,–,–,–,–,–

SMILES,IC50 [1],IC90 [1],IC50 [2],IC90 [2],IC50 [3],IC90 [3],"Mass of tumor ([4]; Hep G2 transplanted tumor, Day 28, intragastric 3 times a day for 10 days, BS-FC-308 35 mg/kg/time, erlotinib hydrochloride 20 mg/kg/time)","Tumor Inhibition rate ([4]; Hep G2 transplanted tumor, Day 28, intragastric 3 times a day for 10 days, BS-FC-308 35 mg/kg/time, erlotinib hydrochloride 20 mg/kg/time, control = 0)","Body Weight (g) Initial ([4]; Hep G2 tumor nude mice, before administration, intragastric 3 times a day, BS-FC-308 35 mg/kg/time, erlotinib hydrochloride 20 mg/kg/time, mean±SD)","Body Weight (g) Final ([4]; Hep G2 tumor nude mice, final, intragastric 3 times a day for 10 days, BS-FC-308 35 mg/kg/time, erlotinib hydrochloride 20 mg/kg/time, mean±SD)",weight of the Hep G2 transplanted tumors (FIG. 3) ([4]; nude mice),"animal's weight during the administration (toxic and side effects) ([5]; 30 mg/kg/time, three administrations per day, weight rebounded after administration was stopped)","Mass of tumor ([5]; KCL-22M transplanted tumor, Day 25, 30 mg/kg/time intragastric 3 times a day for 10 days)","Tumor Inhibition rate ([5]; KCL-22M transplanted tumor, Day 25, 30 mg/kg/time intragastric 3 times a day for 10 days, control = 0)","Body Weight (g) Initial ([5]; KCL-22M tumor nude mice, before administration, 30 mg/kg/time intragastric 3 times a day, mean±SD)","Body Weight (g) Final ([5]; KCL-22M tumor nude mice, final, 30 mg/kg/time intragastric 3 times a day for 10 days, mean±SD)","anti-A549 activity increase over fangchinoline ([2]; relative to fangchinoline, Table 2)"
COc1ccc2cc1Oc1ccc(cc1)C[C@H]1c3cc(c(OC)cc3CCN1C)Oc1c(OC(=O)c3ccc(N(C)C)cc3)c(OC)cc3c1[C@H](C2)N(C)CC3 [BS-FC-308],1.27 µg/mL,3.75 µg/mL,0.99 µg/mL,3.16 µg/mL,3.08 µg/mL,6.05 µg/mL,566 ± 112.26 mg,55.82%,21.8 ± 0.62 g,19.0 ± 0.49 g,significantly reduces,weight was reduced,521 ± 249 mg,74.45%,19.5 ± 0.2 g,15.4 ± 1.51 g,more than 3 fold
